Test results from ChEMBL document CHEMBL1127355, “(E)-3-[[[[6-(2-carboxyethenyl)-5-[[8-(4- methoxyphenyl)octyl]oxy]-2-pyridinyl]-methyl]thio]methyl]benzoic acid and related compounds: high affinity leukotriene B4 receptor antagonists” (J Med Chem, 1994).

Key:
[1] = target: Leukotriene B4 receptor 1 (Homo sapiens, UniProt Q15722); assay: Binding affinity at leukotriene B4 receptor on intact human PMNs by displacement of [3H]LTB4.
Homo sapiens [2] = species on record: Homo sapiens; assay: Concentration of test compound required to inhibit 50% LTB4-induced calcium mobilization in intact human PMNs; type: functional
Homo sapiens [3] = species on record: Homo sapiens; assay: Concentration of test compound required to inhibit 50% LTB4-induced degranulation of human PMNs; type: functional
Mus musculus [4] = assay: Effective concentration required per ear of mouse for inhibition of edematous response; type: functional
Mus musculus [5] = species on record: Mus musculus; assay: Compound was tested for its effect on mouse ear for reduction of PMN infiltration; type: functional
Mus musculus [6] = species on record: Mus musculus; assay: Effective concentration required per ear of mouse for inhibition of neutrophil infiltration; type: functional
Mus musculus [7] = species on record: Mus musculus; assay: Effective concentration required for inhibition of LTB4-induced (250 ng/mL) PMN infiltration; type: functional

Leukotriene B4 receptor 1, sequence (Q15722 whole entry): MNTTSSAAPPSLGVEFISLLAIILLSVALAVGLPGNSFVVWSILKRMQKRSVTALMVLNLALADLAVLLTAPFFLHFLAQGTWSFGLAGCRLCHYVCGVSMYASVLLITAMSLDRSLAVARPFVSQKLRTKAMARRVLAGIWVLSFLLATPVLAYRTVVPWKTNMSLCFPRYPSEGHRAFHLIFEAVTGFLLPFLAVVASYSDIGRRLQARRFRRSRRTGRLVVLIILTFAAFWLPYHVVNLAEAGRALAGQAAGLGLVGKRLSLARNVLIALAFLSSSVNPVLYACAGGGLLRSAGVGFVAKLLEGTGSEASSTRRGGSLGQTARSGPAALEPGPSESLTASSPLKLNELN

Ki [1] [µM]	IC50 (Homo sapiens [2]) [µM]	IC50 (Homo sapiens [3]) [µM]	SMILES	ED50 (Mus musculus [4]) [mg]	Reduction (Mus musculus [5]) [%]	ED50 (Mus musculus [6]) [mg]	ED50 (Mus musculus [7]) [mg/kg]
0.161	7	–	COc1ccc(CCCCCCCCOc2ccc(C[S+]([O-])Cc3ccc(C(=O)O)cc3)nc2/C=C/C(=O)O)cc1 (centres undefined)	–	–	–	–
0.112	0.71	–	COc1ccc(CCCCCCCCOc2ccc(CSCc3ccccc3C(=O)O)nc2/C=C/C(=O)O)cc1	–	–	–	–
–	0.55	1	COc1ccc(CCCCCCCCOc2ccc(CSc3cccc(C(=O)O)c3)nc2/C=C/C(=O)O)cc1	–	–	–	–
0.0057	0.175	0.426	COc1ccc(CCCCCCCCOc2ccc(CSCc3ccc(C(=O)O)cc3)nc2/C=C/C(=O)O)cc1	–	–	–	–
–	0.131	–	COc1ccc(CCCCCCCCOc2ccc(CSCc3cccc(C(=O)O)c3)nc2/C=C/C(=O)O)cc1	0.58	92	0.39	7.1
0.167	3.9	3.2	COc1ccc(CCCCCCCCOc2ccc(C[S+]([O-])c3cccc(C(=O)O)c3)nc2/C=C/C(=O)O)cc1 (centres undefined)	–	–	–	–
0.053	0.92	1	COc1ccc(CCCCCCCCOc2ccc(CS(=O)(=O)Cc3cccc(C(=O)O)c3)nc2/C=C/C(=O)O)cc1	–	–	–	–
0.24	3.3	2.6	COc1ccc(CCCCCCCCOc2ccc(C[S+]([O-])Cc3cccc(C(=O)O)c3)nc2/C=C/C(=O)O)cc1 (centres undefined)	–	–	–	–

Second part, the molecule before the results:

SMILES	Ki [1] [µM]	IC50 (Homo sapiens [2]) [µM]	IC50 (Homo sapiens [3]) [µM]	ED50 (Mus musculus [4]) [mg]	Reduction (Mus musculus [5]) [%]	ED50 (Mus musculus [6]) [mg]	ED50 (Mus musculus [7]) [mg/kg]
CCCc1c(OCCCOc2ccc(C(=O)NC)c(OC)c2CC2CC2)ccc2c1O[C@H](CCC(=O)O)CC2	0.0013	–	–	–	–	–	–
COc1ccc(CCCCOc2ccc(CSCc3cccc(C(=O)O)c3)nc2/C=C/C(=O)O)cc1	0.0092	0.77	0.77	–	–	–	–
COc1ccc(CCCCOc2ccc(CSCc3cccc(C(=O)O)c3)nc2CCC(=O)O)cc1	0.028	1.9	3.8	–	–	–	–
O=C(O)/C=C/c1nc(CSCc2cccc(C(=O)O)c2)ccc1OCCCCc1ccccc1	0.0048	0.5	1.7	–	–	–	–
O=C(O)/C=C/c1nc(CSCc2cccc(C(=O)O)c2)ccc1OCCCCCCCCc1ccccc1	0.0154	0.32	0.5	–	–	–	–
COc1ccc(CCCCCCCCOc2ccc(CSCc3cccc(C(=O)O)c3)nc2CCC(=O)O)cc1	0.008	0.24	0.19	–	–	–	–
